Target: T1, Recombinant Human ENPP-2/Autotaxin (Homo sapiens, UniProt Q13822)
T1 construct: purchased R&D systems 5255-EN
Assay: LysoPLD activity measurement (autotaxin enzyme inhibition, choline release, TOOS reagent)
Type: biochemical
Conditions: LysoPLD inhibitory activity; substrate 14:0 LysoPC; absorbance at 555 nm
Method in brief: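 Autotaxin lysoPLD activity was read as choline released from 14:0 LysoPC, detected by TOOS reagent absorbance. Compound was preincubated 30 min, then substrate diluted to 300 μM was added and the reaction ran 90 minutes at 37° C. Controls contained 1% DMSO.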

| Structure (SMILES) | IC50 [nM] |
| --- | --- |
| O=C(O)c1cccc(Cn2c(=O)n(-c3ccc(N4CCC(F)(F)C4)cc3)c3c(F)c(Cl)ccc32)c1F [Example 119, 3-((5-chloro-3-(4-(3,3-difluoropyrrolidin-1-yl)phenyl)-4-fluoro-2-oxo-2,3-dihydro-1H-benzo[d]imidazol-1-yl)methyl)-2-fluorobenzoic acid] | 10 to 100 |
| CC(C)(C)c1ccc(-n2c(=O)n(Cc3cccc(C(=O)O)c3)c3ccc(Cl)cc32)cc1 [Example 12, 3-((3-(4-(tert-butyl)phenyl)-5-chloro-2-oxo-2,3-dihydro-1H-benzo[d]imidazol-1-yl)methyl)benzoic acid] | 100 to 1000 |
| O=C(O)c1cccc(C2(n3c(=O)n(-c4ccc(CC(=O)N5CCOCC5)cc4)c4cc(Cl)ccc43)CC2)c1 [Example 172, 3-(1-(5-chloro-3-(4-(2-morpholino-2-oxoethyl)phenyl)-2-oxo-2,3-dihydro-1H-benzo[d]imidazol-1-yl)cyclopropyl)benzoic acid] | 10 to 100 |
| O=C(O)c1cccc(Cn2c(=O)n(-c3ccc(N4CCOCC4)cc3)c3cc(Cl)ccc32)c1 [Example 47, 3-((5-chloro-3-(4-morpholinophenyl)-2-oxo-2,3-dihydro-1H-benzo[d]imidazol-1-yl)methyl)benzoic acid] | 10 to 100 |
| Cc1ccc2c(n1)n(-c1ccc(N(C)C)cc1)c(=O)n2Cc1cccc(C(=O)O)c1 [Example 168, 3-((3-(4-(dimethylamino)phenyl)-5-methyl-2-oxo-2,3-dihydro-1H-imidazo[4,5-b]pyridin-1-yl)methyl)benzoic acid] | 100 to 1000 |
| CSc1ccc(-n2c(=O)n(Cc3cccc(C(=O)O)c3F)c3ccc(Cl)cc32)cc1 [Example 55, 3-((5-chloro-3-(4-(methylthio)phenyl)-2-oxo-2,3-dihydro-1H-benzo[d]imidazol-1-yl)methyl)-2-fluorobenzoic acid] | 10 to 100 |
| O=C(O)c1cc(Cn2c(=O)n(-c3ccccc3)c3cc(Cl)ccc32)ccc1F [Example 35, 5-((5-chloro-2-oxo-3-phenyl-2,3-dihydro-1H-benzo[d]imidazol-1-yl)methyl)-2-fluorobenzoic acid] | 100 to 1000 |
| CC(C)(C)OC(=O)N1CCC2(CC1)CN(c1ccc(-n3c(=O)n(C4(c5cc(F)cc(C(=O)O)c5)CC4)c4ccc(Cl)cc43)cc1)C2 [Example 195, 3-(1-(3-(4-(7-(tert-butoxycarbonyl)-2,7-diazaspiro[3.5]nonan-2-yl)phenyl)-5-chloro-2-oxo-2,3-dihydro-1H-benzo[d]imidazol-1-yl)cyclopropyl)-5-fluorobenzoic acid] | 10 to 100 |
| O=C(O)c1cccc(Cn2c(=O)n(-c3ccc(C(=O)O)cc3F)c3cc(Cl)ccc32)c1 [Example 46, 4-(3-(3-carboxybenzyl)-6-chloro-2-oxo-2,3-dihydro-1H-benzo[d]imidazol-1-yl)-3-fluorobenzoic acid] | 100 to 1000 |
| O=C(O)c1cccc(Cn2c(=O)n(-c3ccc(C4CCN(C(=O)C5CC5)CC4)cc3)c3c(F)c(Cl)ccc32)c1F [Example 150, 3-((5-chloro-3-(4-(1-(cyclopropanecarbonyl)piperidin-4-yl)phenyl)-4-fluoro-2-oxo-2,3-dihydro-1H-benzo[d]imidazol-1-yl)methyl)-2-fluorobenzoic acid] | 10 to 100 |
| O=C(O)c1cccc(Cn2c(=O)n(-c3ccc(C(=O)N4CCCCC4)cc3)c3cc(Cl)ccc32)c1 [Example 43, 3-((5-chloro-2-oxo-3-(4-(piperidine-1-carbonyl)phenyl)-2,3-dihydro-1H-benzo[d]imidazol-1-yl)methyl)benzoic acid] | < 10 |
| O=C(O)c1ccc(F)c(Cn2c(=O)n(-c3ccc(N4CCOCC4)cc3)c3c(F)c(Cl)ccc32)c1 [Example 50, 3-((5-chloro-4-fluoro-3-(4-morpholinophenyl)-2-oxo-2,3-dihydro-1H-benzo[d]imidazol-1-yl)methyl)-4-fluorobenzoic acid] | 10 to 100 |
| O=C(O)c1cccc(Cn2c(=O)n(-c3cnn(CC4CCC4)c3)c3cc(Cl)ccc32)c1 [Example 91, 3-((5-chloro-3-(1-cyclobutylmethyl-1H-pyrazol-4-yl)-2-oxo-2,3-dihydro-1H-benzo[d]imidazol-1-yl)methyl)benzoic acid] | 100 to 1000 |
| O=C(O)c1coc(Cn2c(=O)n(-c3ccc(N4CCOCC4)cc3)c3c(F)c(Cl)ccc32)n1 [Example 199, 2-((5-chloro-4-fluoro-3-(4-morpholinophenyl)-2-oxo-2,3-dihydro-1H-benzo[d]imidazol-1-yl)methyl)oxazole-4-carboxylic acid] | 100 to 1000 |
| CC1(C)OCc2cc(-n3c(=O)n(C4(c5cc(F)cc(C(=O)O)c5)CC4)c4ccc(Cl)cc43)ccc21 [Example 252, 3-(1-(5-chloro-3-(1,1-dimethyl-1,3-dihydroisobenzofuran-5-yl)-2-oxo-2,3-dihydro-1H-benzo[d]imidazol-1-yl)cyclopropyl)-5-fluorobenzoic acid] | < 10 |
| O=C(O)c1cccc(C2(n3c(=O)n(-c4ccc(N5CCC(F)(F)C5)nc4)c4cc(Cl)ccc43)CC2)c1 [Example 165, 3-(1-(5-chloro-3-(6-(3,3-difluoropyrrolidin-1-yl)pyridin-3-yl)-2-oxo-2,3-dihydro-1H-benzo[d]imidazol-1-yl)cyclopropyl)benzoic acid] | < 10 |

The remaining lines, values ahead:

| IC50 [nM] | Structure (SMILES) |
| --- | --- |
| < 10 | O=C(O)c1cccc(C2(n3c(=O)n(-c4ccc(-c5nnc(C6CC6)o5)cc4)c4cc(Cl)ccc43)CC2)c1 [Example 263, 3-(1-(5-chloro-3-(4-(5-cyclopropyl-1,3,4-oxadiazol-2-yl)phenyl)-2-oxo-2,3-dihydro-1H-benzo[d]imidazol-1-yl)cyclopropyl)benzoic acid] |
| < 10 | CC(C)(O)Cc1ccc(-n2c(=O)n(C3(c4cccc(C(=O)O)c4)CC3)c3ccc(Cl)cc32)cc1 [Example 216, 3-(1-(5-chloro-3-(4-(2-hydroxy-2-methylpropyl)phenyl)-2-oxo-2,3-dihydro-1H-benzo[d]imidazol-1-yl)cyclopropyl)benzoic acid] |
| < 10 | O=C(O)c1cc(F)cc(C2(n3c(=O)n(-c4ccc(N5CC(F)(F)C5)cc4)c4cc(Cl)ccc43)CC2)c1 [Example 194, 3-(1-(5-chloro-3-(4-(3,3-difluoroazetidin-1-yl)phenyl)-2-oxo-2,3-dihydro-1H-benzo[d]imidazol-1-yl)cyclopropyl)-5-fluorobenzoic acid] |
| < 10 | O=C(O)c1cccc(C2(n3c(=O)n(-c4ccc(C(=O)N5CC6(COC6)C5)cc4)c4cc(Cl)ccc43)CC2)c1F [Example 135, 3-(1-(3-(4-(2-oxa-6-azaspiro[3.3]heptane-6-carbonyl)phenyl)-5-chloro-2-oxo-2,3-dihydro-1H-benzo[d]imidazol-1-yl)cyclopropyl)-2-fluorobenzoic acid] |
| < 10 | O=C(O)c1cccc(C2(n3c(=O)n(-c4ccc(N5CCOCC5)cc4)c4cc(C(F)(F)F)ccc43)CC2)c1 [Example 207, 3-(1-(3-(4-morpholinophenyl)-2-oxo-5-(trifluoromethyl)-2,3-dihydro-1H-benzo[d]imidazol-1-yl)cyclopropyl)benzoic acid] |
| < 10 | CC(=O)N1CCC2(CC1)CN(c1ccc(-n3c(=O)n(C4(c5cccc(C(=O)O)c5)CC4)c4ccc(Cl)cc43)cc1)C2 [Example 186, 3-(1-(3-(4-(7-acetyl-2,7-diazaspiro[3.5]nonan-2-yl)phenyl)-5-chloro-2-oxo-2,3-dihydro-1H-benzo[d]imidazol-1-yl)cyclopropyl)benzoic acid] |
| < 10 | O=C(O)c1cccc(Cn2c(=O)n(-c3ccc(N4CCOCC4)cc3)c3c(F)c(Cl)ccc32)c1F [Example 51, 3-((5-chloro-4-fluoro-3-(4-morpholinophenyl)-2-oxo-2,3-dihydro-1H-benzo[d]imidazol-1-yl)methyl)-2-fluorobenzoic acid] |
| < 10 | O=C1COc2cc(-n3c(=O)n(C4(c5cc(F)cc(C(=O)O)c5)CC4)c4ccc(Cl)cc43)ccc2N1 [Example 254, 3-(1-(5-chloro-2-oxo-3-(3-oxo-3,4-dihydro-2H-benzo[b][1,4]oxazin-7-yl)-2,3-dihydro-1H-benzo[d]imidazol-1-yl)cyclopropyl)-5-fluorobenzoic acid] |
| < 10 | C[C@@H]1COCCN1C(=O)Cc1ccc(-n2c(=O)n(C3(c4cccc(C(=O)O)c4)CC3)c3ccc(Cl)cc32)cc1 [Example 178, (R)-3-(1-(5-chloro-3-(4-(2-(3-methylmorpholino)-2-oxoethyl)phenyl)-2-oxo-2,3-dihydro-1H-benzo[d]imidazol-1-yl)cyclopropyl)benzoic acid] |
| < 10 | O=C(O)c1cccc(C2(n3c(=O)n(-c4ccc(CC(=O)N5CCCCC5)cc4)c4cc(Cl)ccc43)CC2)c1 [Example 171, 3-(1-(5-chloro-2-oxo-3-(4-(2-oxo-2-(piperidin-1-yl)ethyl)phenyl)-2,3-dihydro-1H-benzo[d]imidazol-1-yl)cyclopropyl)benzoic acid] |
| < 10 | C[C@@H]1CN(C(=O)Cc2ccc(-n3c(=O)n(C4(c5cccc(C(=O)O)c5)CC4)c4ccc(Cl)cc43)cc2)CCO1 [Example 175, (R)-3-(1-(5-chloro-3-(4-(2-(2-methylmorpholino)-2-oxoethyl)phenyl)-2-oxo-2,3-dihydro-1H-benzo[d]imidazol-1-yl)cyclopropyl)benzoic acid] |
| < 10 | O=C(O)c1cccc(C2(n3c(=O)n(-c4ccc(CC(=O)N5CCCC5)cc4)c4cc(Cl)ccc43)CC2)c1 [Example 170, 3-(1-(5-chloro-2-oxo-3-(4-(2-oxo-2-(pyrrolidin-1-yl)ethyl)phenyl)-2,3-dihydro-1H-benzo[d]imidazol-1-yl)cyclopropyl)benzoic acid] |
| < 10 | O=C(O)c1cccc(C2(n3c(=O)n(-c4ccc(C5=CCOCC5)cc4)c4cc(Cl)ccc43)CC2)c1 [Example 121, 3-(1-(5-chloro-3-(4-(3,6-dihydro-2H-pyran-4-yl)phenyl)-2-oxo-2,3-dihydro-1H-benzo[d]imidazol-1-yl)cyclopropyl)benzoic acid] |

— patent US20260265265A1, “NOVEL BENZIMIDAZOLONE DERIVATIVE COMPOUND AS AUTOTAXIN INHIBITOR” (LG CHEM, LTD., priority 2023, published 2026)
